Holding throughout (format): cell-based
The test system of test [1] is CACO (Colorectal carcinoma). Kind of test: MTT cytotoxicity assay, CACO. As to conditions: 24 h incubation. As for the experimental part: (§1) The cell lines A-549 (Lung carcinoma), CACO (Colorectal carcinoma), HCT-116 (Colon carcinoma), Hela (Cervical carcinoma), HepG-2 (Hepatocellular carcinoma), and MCF-7 (Breast carcinoma) were obtained from the Regional Center for Mycology and Biotechnology, Al-Azhar University, Cairo, Egypt.
(§2) The antitumor assay was carried out on the above cell lines as published by A Ooi et al., ‘A Guide to Transient Expression of Membrane Proteins in HEK-293 Cells for Functional Characterization”, Front. Physiol. 7:300, published online 19 Jul. 2016, for all of the extracts which have been obtained in section above (A, R, AL, APC, RPC, APB, RPB, AR &RR). Briefly, the cell lines were suspended in medium at a concentration of 5×10^4 cell/well in Corning® 96-well tissue culture plates and then incubated for 24 hr. The tested extracts were then added into 96-well plates (six replicates) to achieve seven concentrations for each extract. […] After incubation for 24 h, the numbers of viable cells were determined by the MTT assay method. […] Then, the optical density was measured at 590 nm with the microplate reader to determine the number of viable cells. The percentage of viability was calculated as: (ODt/ODc)×100%, where ODt is the mean optical density of wells treated with the tested sample and ODc is the mean optical density of untreated cells. […]
Background: Tetrazolium dyes change colour on reduction, which living cells bring about.

Another test has as its system MCF-7 (Breast carcinoma). Description: MTT cytotoxicity assay, MCF-7. As to conditions: Homo sapiens, MCF7, 24 h incubation. How it is done:
as §1, §2

Test [2] relates to HepG-2 (Hepatocellular carcinoma). Kind of test: MTT cytotoxicity assay, HepG-2. As to conditions: Homo sapiens, HepG2, 24 h incubation. How it is done:
as §1, §2

The subject of the next test is A-549 (Lung carcinoma). Kind of test: MTT cytotoxicity assay, A-549. As to conditions: Homo sapiens, A549, 24 h, 24 h incubation. How it is done: as §1, §2
For test [3], the system named is HCT-116 (Colon carcinoma). Description: MTT cytotoxicity assay, HCT-116. As to conditions: Homo sapiens, 24 h incubation. How it is done:
as §1, §2

Counter-ions that a name gives are not always drawn.

Take `CC[C@]1(O)C[C@@H]2CN(CCc3c([nH]c4ccccc34)[C@@](C(=O)OC)(c3cc4c(cc3OC)N(C)[C@H]3[C@@](O)(C(=O)OC)[C@H](OC(C)=O)[C@]5(CC)C=CCN6CC[C@]43[C@@H]65)C2)C1` [Vinblastine sulfate]: the IC50 in test [1] (24 h) came out at 24.6 ± 0.7 µg/mL; in the test with MCF-7 (Breast carcinoma) it was 5.9 ± 0.4 µg/mL; in test [2], 2.93 ± 0.3 µg/mL; in the test with A-549 (Lung carcinoma), 30.3 ± 1.4 µg/mL; in test [3], 3.5 ± 0.2 µg/mL. For the same compound, in test [1], the “IC50 CACO (Colorectal carcinoma)” value was 30.3 ± 1.4 µg/mL.

A word on the IC50: it is the concentration that gives 50% inhibition. The low end stands for inhibition by little substance, the high end for a need for much substance.

The record behind these values is US20190231841A1, “CENCHRUS CILIARIS L. AS AN ANTICANCER AGENT” (KING SAUD UNIVERSITY, priority 2018, published 2019).
